# Assay results reported in ChEMBL document CHEMBL5614421, “Structure-activity relationship study of Pseudellone C as anti-glioma agents by targeting TNF/TNFR signaling pathway” (Eur J Med Chem, 2024).
# Calls of active or inactive are those of the source. The calls are words filed in the database; no cut-off is given here.
# Assays:
# [1] = Drug concentration in C57BL/6J mouse brain at 9 mg/kg,iv administration measured after 30 mins by LC-MS analysis; assay type: ADME, organism-based; conditions: read-out: Ct
# [2] = test system: LN-229; experiment: Induction of apoptosis in human LN-229 cells assessed as viable cells at 20 uM incubated for 24 hrs by Annexin V-APC/7-AAD staining based flow cytometric analysis (reference value: 92.3 %); assay type: functional; conditions: read-out: Activity
# [3] = test system: U-87 MG; experiment: Antiproliferative activity against human U-87 MG cells assessed as inhibition of cell growth incubated for 68 hrs by CCK-8 assay; assay type: functional, cell-based, U-87MG ATCC
# [4] = test system: LN-229; experiment: Antiproliferative activity against human LN-229 cells assessed as inhibition of cell growth incubated for 68 hrs by CCK-8 assay; assay type: functional, cell-based; conditions: LN-229, 68 h
# [5] = test system: U-87 MG; experiment: Induction of apoptosis in human U-87 MG cells assessed as viable cells at 20 uM incubated for 24 hrs by Annexin V-APC/7-AAD staining based flow cytometric analysis (reference value: 94 %); assay type: functional, U-87MG ATCC; conditions: read-out: Activity
# [6] = test system: U-87 MG; experiment: Induction of apoptosis in human U-87 MG cells assessed as early apoptotic cells at 10 uM incubated for 24 hrs by Annexin V-APC/7-AAD staining based flow cytometric analysis (reference value: 1.59 %); assay type: functional, U-87MG ATCC
# [7] = test system: U-87 MG; experiment: Induction of apoptosis in human U-87 MG cells assessed as late apoptotic cells at 20 uM incubated for 24 hrs by Annexin V-APC/7-AAD staining based flow cytometric analysis (reference value: 4.22 %); assay type: functional, U-87MG ATCC
# [8] = test system: U-87 MG; experiment: Induction of apoptosis in human U-87 MG cells assessed as necrotic cells at 20 uM incubated for 24 hrs by Annexin V-APC/7-AAD staining based flow cytometric analysis (reference value: 0.21 %); assay type: functional, U-87MG ATCC
# [9] = test system: LN-229; experiment: Induction of apoptosis in human LN-229 cells assessed as viable cells at 20 uM incubated for 24 hrs by Annexin V-APC/7-AAD staining based flow cytometric analysis (reference value: 95.4 %); assay type: functional; conditions: read-out: Activity
# [10] = test system: LN-229; experiment: Induction of apoptosis in human LN-229 cells assessed as late apoptotic cells at 10 uM incubated for 24 hrs by Annexin V-APC/7-AAD staining based flow cytometric analysis (reference value: 3.56 %); assay type: functional
# [11] = test system: U-87 MG; experiment: Induction of apoptosis in human U-87 MG cells assessed as viable cells at 20 uM incubated for 24 hrs by Annexin V-APC/7-AAD staining based flow cytometric analysis (reference value: 94.6 %); assay type: functional, U-87MG ATCC; conditions: read-out: Activity
# [12] = test system: U-87 MG; experiment: Induction of apoptosis in human U-87 MG cells assessed as early apoptotic cells at 20 uM incubated for 12 hrs by Annexin V-APC/7-AAD staining based flow cytometric analysis (reference value: 0.94 %); assay type: functional, U-87MG ATCC
# [13] = test system: U-87 MG; experiment: Induction of apoptosis in human U-87 MG cells assessed as necrotic cells at 20 uM incubated for 12 hrs by Annexin V-APC/7-AAD staining based flow cytometric analysis (reference value: 1 %); assay type: functional, U-87MG ATCC
# [14] = test system: U-87 MG; experiment: Induction of apoptosis in human U-87 MG cells assessed as necrotic cells at 20 uM incubated for 48 hrs by Annexin V-APC/7-AAD staining based flow cytometric analysis (reference value: 1 %); assay type: functional, U-87MG ATCC
# [15] = test system: LN-229; experiment: Induction of apoptosis in human LN-229 cells assessed as viable cells at 20 uM incubated for 12 hrs by Annexin V-APC/7-AAD staining based flow cytometric analysis (reference value: 91.7 %); assay type: functional; conditions: read-out: Activity
# [16] = test system: LN-229; experiment: Induction of apoptosis in human LN-229 cells assessed as viable cells at 20 uM incubated for 24 hrs by Annexin V-APC/7-AAD staining based flow cytometric analysis (reference value: 91.7 %); assay type: functional; conditions: read-out: Activity
# [17] = test system: LN-229; experiment: Induction of apoptosis in human LN-229 cells assessed as viable cells at 20 uM incubated for 48 hrs by Annexin V-APC/7-AAD staining based flow cytometric analysis (reference value: 91.7 %); assay type: functional; conditions: read-out: Activity
# [18] = test system: LN-229; experiment: Induction of apoptosis in human LN-229 cells assessed as early apoptotic cells at 20 uM incubated for 12 hrs by Annexin V-APC/7-AAD staining based flow cytometric analysis (reference value: 2.46 %); assay type: functional
# [19] = test system: LN-229; experiment: Induction of apoptosis in human LN-229 cells assessed as late apoptotic cells at 20 uM incubated for 48 hrs by Annexin V-APC/7-AAD staining based flow cytometric analysis (reference value: 5.1 %); assay type: functional
# [20] = test system: LN-229; experiment: Induction of apoptosis in human LN-229 cells assessed as necrotic cells at 20 uM incubated for 24 hrs by Annexin V-APC/7-AAD staining based flow cytometric analysis (reference value: 0.7 %); assay type: functional
# [21] = test system: LN-229; experiment: Induction of apoptosis in human LN-229 cells assessed as necrotic cells at 20 uM incubated for 48 hrs by Annexin V-APC/7-AAD staining based flow cytometric analysis (reference value: 0.7 %); assay type: functional
# [22] = test system: U-87 MG; experiment: Induction of apoptosis in human U-87 MG cells assessed as early apoptotic cells at 20 uM incubated for 24 hrs by Annexin V-APC/7-AAD staining based flow cytometric analysis (reference value: 3.44 %); assay type: functional, U-87MG ATCC
# [23] = test system: U-87 MG; experiment: Induction of apoptosis in human U-87 MG cells assessed as late apoptotic cells at 20 uM incubated for 24 hrs by Annexin V-APC/7-AAD staining based flow cytometric analysis (reference value: 7.7 %); assay type: functional, U-87MG ATCC
# [24] = test system: U-87 MG; experiment: Induction of apoptosis in human U-87 MG cells assessed as early apoptotic cells at 20 uM incubated for 24 hrs in presence of R7050 by Annexin V-APC/7-AAD staining based flow cytometric analysis (reference value: 3.44 %); assay type: functional, U-87MG ATCC
# [25] = test system: LN-229; experiment: Induction of apoptosis in human LN-229 cells assessed as late apoptotic cells at 20 uM incubated for 24 hrs by Annexin V-APC/7-AAD staining based flow cytometric analysis (reference value: 4.86 %); assay type: functional
# [26] = test system: LN-229; experiment: Induction of apoptosis in human LN-229 cells assessed as viable cells at 20 uM incubated for 24 hrs in presence of R7050 by Annexin V-APC/7-AAD staining based flow cytometric analysis (reference value: 92.3 %); assay type: functional; conditions: read-out: Activity
# [27] = test system: LN-229; experiment: Induction of apoptosis in human LN-229 cells assessed as late apoptotic cells at 20 uM incubated for 24 hrs in presence of R7050 by Annexin V-APC/7-AAD staining based flow cytometric analysis (reference value: 4.86 %); assay type: functional
# [28] = test system: LN-229; experiment: Induction of apoptosis in human LN-229 cells at 20 uM incubated for 24 hrs by Annexin V-APC/7-AAD staining based flow cytometric analysis (reference value: 4.47 +/- 1.09 %); assay type: functional
# [29] = test system: LN-229; experiment: Induction of apoptosis in human LN-229 cells assessed as reduction in Bcl-2/Bax ratio at 5 to 20 uM incubated for 24 hrs by Western blot analysis; assay type: functional, cell-based; conditions: dose 5-20 µM
# [30] = test system: U-87 MG; experiment: Induction of apoptosis in human U-87 MG cells at 20 uM incubated for 24 hrs by Annexin V-APC/7-AAD staining based flow cytometric analysis relative to control; assay type: functional, U-87MG ATCC
# [31] = test system: LN-229; experiment: Induction of apoptosis in human LN-229 cells at 20 uM incubated for 24 hrs by Annexin V-APC/7-AAD staining based flow cytometric analysis relative to control; assay type: functional
# [32] = test system: LN-229; experiment: Induction of apoptosis in human LN-229 cells at 20 uM incubated for 24 hrs in presence of R7050 by Annexin V-APC/7-AAD staining based flow cytometric analysis relative to control; assay type: functional
compound,measurement,setting,value
CCCCCCCNC(=O)[C@H](Cc1c[nH]c2ccccc12)NC(=O)C(C)(c1c[nH]c2ccccc12)c1c[nH]c2ccccc12,concentration at 0.5 h,[1],241 ng/g
same,viability at 20 µM,[2],66.2%
same,IC50,[3],8.2 µM
same,IC50,[4],10.8 µM
same,viability at 20 µM,[5],74.3%
same,Activity,[6],4.46%
same,Activity,[7],11.6%
same,Activity,[8],0.47%
same,viability at 20 µM,[9],79.8%
same,Activity,[10],6.38%
same,viability at 20 µM,[11],92%
same,Activity,[12],1.53%
same,Activity,[13],1.01%
same,Activity,[14],4.65%
same,viability at 20 µM,[15],92.7%
same,viability at 20 µM,[16],81.7%
same,viability at 20 µM,[17],37.7%
same,Activity,[18],1.76%
same,Activity,[19],41.9%
same,Activity,[20],0.87%
same,Activity,[21],1.9%
same,Activity,[22],16.8%
same,Activity,[23],10%
same,Activity,[24],8.66%
same,Activity,[25],7.62%
same,viability at 20 µM,[26],91.4%
same,Activity,[27],5.88%
same,Activity,[28],21.2%
same,Activity,[29],Active
same,Activity,[30],24.89%
same,Activity,[31],31.44%
same,Activity,[32],22.79%
